Assays:
[1] = test system: Freund's Complete Adjuvant (FCA) challenged rats; assay: Freund's Complete Adjuvant induced inflammation (paw volume) in rats; assay type: in vivo; settings: 50 mg/kg daily in 1% CMC for 28 days, FCA on day 14, paw volumes at 28th day
Method: Test animals (rats, 200-300 g) of either sex were randomly distributed into different groups, with 5 animals in each group. Rats were supplemented daily with either demethylated curcuminoids (50 mg/kg) or enriched AKBA extract (50 mg/kg) or glucosamine (50 mg/kg), or reseveratrol (50 mg/kg), garlic extract (50 mg/kg) or ginger extract (50 mg/kg), or composition 7 (50 mg/kg) in 1% CMC for 28 days. The control group received same volume of vehicle (1% CMC); a standard drug, Prednisolone (10 mg/kg, orally) was used in the control treatment group. On the day 14, 100 μl of Freund's Complete Adjuvant (FCA) was injected subcutaneously in the sub planter region of the left hind paw. Blood samples were collected from each animal on the previous day of FCA challenge and at the day of termination of experiment i.e. 14 days after challenge. At the 28th day paw volumes were measured and after sacrificing the animals, liver tissues were excised and stored at −80° C. until further use.

5-LOX = target: T1, 5-LOX (Homo sapiens, UniProt P09917); settings: of all the six boswellic acids; cited from earlier work
T1 sequence (P09917 1-674): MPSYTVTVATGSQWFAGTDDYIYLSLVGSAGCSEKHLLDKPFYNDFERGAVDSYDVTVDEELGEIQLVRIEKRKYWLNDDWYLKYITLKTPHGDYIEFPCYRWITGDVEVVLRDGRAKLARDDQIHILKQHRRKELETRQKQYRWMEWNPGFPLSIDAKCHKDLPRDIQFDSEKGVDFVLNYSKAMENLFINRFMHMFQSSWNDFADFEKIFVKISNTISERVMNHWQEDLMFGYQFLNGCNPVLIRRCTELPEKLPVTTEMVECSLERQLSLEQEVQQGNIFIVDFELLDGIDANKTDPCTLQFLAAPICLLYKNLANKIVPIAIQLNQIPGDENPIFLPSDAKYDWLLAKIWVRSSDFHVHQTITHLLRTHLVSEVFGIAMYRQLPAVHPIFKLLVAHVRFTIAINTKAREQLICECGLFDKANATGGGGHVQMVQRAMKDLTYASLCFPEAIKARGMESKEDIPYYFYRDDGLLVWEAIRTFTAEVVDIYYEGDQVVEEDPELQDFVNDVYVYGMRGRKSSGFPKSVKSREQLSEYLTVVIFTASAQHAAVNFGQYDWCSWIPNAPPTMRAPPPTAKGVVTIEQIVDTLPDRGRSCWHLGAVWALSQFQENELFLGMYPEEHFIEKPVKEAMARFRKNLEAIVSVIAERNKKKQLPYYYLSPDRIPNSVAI

SMILES | percent of inhibitions [1] [%] | inhibitory activity against 5-LOX (in words) (5-LOX)
Oc1ccc(/C=C/c2cc(O)cc(O)c2)cc1 [Reseveratrol, reseveratrol] | 20.5 | –
N[C@H]1C(O)O[C@H](CO)[C@@H](O)[C@@H]1O (stereo partly drawn) [Glucosamine, glucosamine] | 5.5 | –
CC(=O)O[C@H]1CC[C@@]2(C)C(CC[C@]3(C)C2C(=O)C=C2C4[C@@H](C)[C@@H](C)CC[C@]4(C)CC[C@@]23C)[C@]1(C)C(=O)O (stereo partly drawn) [AKBA, 3-O-acetyl-11-keto-β-boswellic acid] | – | most pronounced inhibitory activity

Source: patent US8420132B2, “Synergistic anti-inflammatory and antioxidant dietary supplement compositions” (Laila Impex, priority 2007, dated 2013)
